The target of one test is T1, GPR3 (Homo sapiens, UniProt P46089).
T1 construct: expressed in transfected cells; host or cells: CHO cells
The test is described as follows: GPR3 antagonist functional cAMP assay (LANCE Ultra cAMP TR-FRET, CHO cells stably expressing GPR3). The format is cell-based. Put shortly: (§1)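 cAMP quantified by TR-FRET immunoassay after 45 min compound treatment at 37° C of CHO cells stably expressing GPR3 or GPR6, in PDE-inhibitor (Ro 20-1724, 150 μM) buffer with 0.1% BSA. Data scaled between DMSO (0%) and reference compounds (100%); antagonist IC50 by 4-parameter logistic fit.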
(In general: cAMP levels reflect the balance of adenylyl cyclase and phosphodiesterase activity.)

Another test has as its target T2, GPR6 (Homo sapiens, UniProt P46095).
T2 construct: expressed in transfected cells; host or cells: CHO cells
The test is described as follows: GPR6 antagonist functional cAMP assay (LANCE Ultra cAMP TR-FRET, CHO cells stably expressing GPR6). It is filed as cell-based. Put shortly:
as §1

[1] abbreviates: procedure as described in Example 24.
Where [2] appears, read: CHO cells stably expressing GPR3, cAMP assay.
Setting [3] is: CHO cells stably expressing GPR6, cAMP assay.
[4] abbreviates: CHO cells stably expressing GPR3, cAMP assay (Example 24).
Setting [5] is: CHO cells stably expressing GPR6, cAMP assay (Example 24).

Consider 21 molecules from patent US20260042755A1, “GPR6 INVERSE AGONISTS” (MapLight Therapeutics, Inc., priority 2022, published 2026).

T1 sequence (P46089 whole entry, species assumed): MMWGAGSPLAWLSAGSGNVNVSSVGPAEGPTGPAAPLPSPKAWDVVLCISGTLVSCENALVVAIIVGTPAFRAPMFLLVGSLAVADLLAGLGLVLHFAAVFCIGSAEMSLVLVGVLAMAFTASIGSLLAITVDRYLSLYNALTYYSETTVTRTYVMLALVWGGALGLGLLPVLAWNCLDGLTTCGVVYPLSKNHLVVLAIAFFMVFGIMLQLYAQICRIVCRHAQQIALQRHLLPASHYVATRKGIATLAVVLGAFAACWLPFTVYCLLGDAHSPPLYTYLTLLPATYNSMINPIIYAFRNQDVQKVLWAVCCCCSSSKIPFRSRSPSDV
T2 sequence (P46095 whole entry): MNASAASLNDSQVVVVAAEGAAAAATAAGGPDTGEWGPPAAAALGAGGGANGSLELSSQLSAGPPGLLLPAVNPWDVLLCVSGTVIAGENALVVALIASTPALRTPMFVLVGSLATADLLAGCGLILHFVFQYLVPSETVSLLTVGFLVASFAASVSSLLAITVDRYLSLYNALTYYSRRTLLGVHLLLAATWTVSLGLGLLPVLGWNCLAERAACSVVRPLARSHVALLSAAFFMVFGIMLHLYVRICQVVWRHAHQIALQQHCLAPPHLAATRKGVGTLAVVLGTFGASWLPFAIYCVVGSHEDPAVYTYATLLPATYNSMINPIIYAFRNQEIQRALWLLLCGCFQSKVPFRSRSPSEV

As a reminder, the IC50 is the concentration needed to halve the response being measured. Read a low IC50 as inhibition by little substance. In the case of `COc1cccc(-c2nc3cnccc3nc2N2CCN(Cc3ccc(S(C)(=O)=O)cc3F)CC2)n1` [Compound 29, 1-[(2-fluoro-4-methanesulfonylphenyl)methyl]-4-[3-(6-methoxypyridin-2-yl)pyrido[3,4-b]pyrazin-2-yl]piperazine], the IC50 against GPR3 (setting [1]) lay within 100 to 1000 nM; at GPR6 (setting [1]), 1000 to 30000 nM.

With `CC(=O)N1CCc2nc(N3CCC(Oc4ccc(F)cc4F)CC3)c(-c3cncc(=O)[nH]3)nc2C1` [Compound 12, 6-{6-acetyl-2-[4-(2,4-difluorophenoxy)piperidin-1-yl]-5H,6H,7H,8H-pyrido[3,4-b]pyrazin-3-yl}-1,2-dihydropyrazin-2-one], the IC50 at GPR3 (setting [1]) and against GPR6 (setting [1]) was 1000 to 30000 nM in each case.

In the case of `CC(=O)N1CCc2nc(N3CCN(Cc4ccoc4)CC3)c(-c3cnn(C)c3)nc2C1` [Compound 529, 1-(2-{4-[(3-furyl)methyl]-1-piperazinyl}-3-(1-methyl-4-pyrazolyl)-5,6,7,8-tetrahydro-1,4,6-triaza-6-naphthyl)-1-ethanone], the IC50 at GPR3 (setting [2]) was at least 30000 nM; against GPR6 (setting [3]) it was 1000 to 30000 nM.

In the case of `COCC(=O)N1CCc2nc(N3CCC(Oc4ccc(F)cc4F)CC3)c(-c3cn[nH]c3)nc2C1` [Compound 148, 1-{2-[4-(2,4-difluorophenoxy)piperidin-1-yl]-3-(1H-pyrazol-4-yl)-5H,6H,7H,8H-pyrido[3,4-b]pyrazin-6-yl}-2-methoxyethan-1-one], the IC50 is 1000 to 30000 nM at GPR3 (setting [4]) and under 100 nM against GPR6 (setting [5]).

With `CC(=O)N1CCc2nc(N3CCC(Oc4ccc(F)cc4F)CC3)c(-c3ccncn3)nc2C1` [Compound 13, 1-{2-[4-(2,4-difluorophenoxy)piperidin-1-yl]-3-(pyrimidin-4-yl)-5H,6H,7H,8H-pyrido[3,4-b]pyrazin-6-yl}ethan-1-one], the IC50 on GPR3 (setting [1]) is 100 to 1000 nM; against GPR6 (setting [1]) it was 1000 to 30000 nM.

Turning to `N#CCN1CCc2nc(N3CCC(Oc4ccc(F)cc4F)CC3)c(-c3cnn(C4CCCCO4)c3)nc2C1` (stereo not drawn) [Compound 118, 2-{2-[4-(2,4-difluorophenoxy)piperidin-1-yl]-3-[1-(oxan-2-yl)-1H-pyrazol-4-yl]-5H,6H,7H,8H-pyrido[3,4-b]pyrazin-6-yl}acetonitrile], the IC50 against GPR3 (setting [4]) and against GPR6 (setting [5]) was 1000 to 30000 nM each time.

As for `CCn1cc(-c2nc3c(nc2N2CCC(Oc4ccc(F)cc4F)CC2)CCN(C(=O)C(C)(C)O)C3)cn1` [Compound 276, 1-{2-[4-(2,4-difluorophenoxy)piperidin-1-yl]-3-(1-ethyl-1H-pyrazol-4-yl)-5H,6H,7H,8H-pyrido [3,4-b]pyrazin-6-yl}-2-hydroxy-2-methylpropan-1-one], the IC50 at GPR3 (procedure of Example 24) was 100 to 1000 nM; on GPR6 (procedure of Example 24) it was under 100 nM.

`CC(=O)N1CCc2nc(N3CCC(Oc4ccc(F)cc4F)CC3)c(-c3ccn[nH]3)nc2C1` [Compound 11, 1-{2-[4-(2,4-difluorophenoxy)piperidin-1-yl]-3-(1H-pyrazol-5-yl)-5H,6H,7H,8H-pyrido[3,4-b]pyrazin-6-yl}ethan-1-one]: the IC50 at GPR3 (setting [1]) and against GPR6 (setting [1]) was 1000 to 30000 nM each time.

Take `CCn1cc(-c2nc3c(nc2N2CCC(Oc4ccc(F)cc4F)CC2)CCN(C(=O)C(O)C(C)(C)O)C3)cn1` (stereo not drawn) [Compound 521, 1-{2-[4-(2,4-difluorophenoxy)-1-piperidyl]-3-(1-ethyl-4-pyrazolyl)-5,6,7,8-tetrahydro-1,4,6-triaza-6-naphthyl}-2,3-dihydroxy-3-methyl-1-butanone]: the IC50 against GPR3 (setting [2]) is 1000 to 30000 nM; at GPR6 (setting [3]), 100 to 1000 nM.

For the molecule `Cn1cc(-c2nc3cnccc3nc2N2CCC(Cc3ccc(F)cc3F)CC2)cn1` [Compound 368, 4-[(2,4-difluorophenyl)methyl]-1-[3-(1-methyl-1H-pyrazol-4-yl)pyrido[3,4-b]pyrazin-2-yl]piperidine], the IC50 against GPR3 (procedure of Example 24) is 100 to 1000 nM; against GPR6 (procedure of Example 24), under 100 nM.

Take `CC(C)(O)[C@@](C)(O)c1cc2nc(N3CCN(Cc4ccccc4F)CC3)c(-c3cnn(C(F)F)c3)nc2cn1` (single isomer, unassigned) [Compound 670]: the IC50 against GPR3 (procedure of Example 24) and on GPR6 (procedure of Example 24) was 100 to 1000 nM throughout.

On to `O=C(N1CCc2nc(N3CCC(Oc4ccc(F)cc4F)CC3)c(-c3cn[nH]c3)nc2C1)N1CC(O)C1` [Compound 206, 1-{2-[4-(2,4-difluorophenoxy)piperidin-1-yl]-3-(1H-pyrazol-4-yl)-5H,6H,7H,8H-pyrido[3,4-b]pyrazine-6-carbonyl}azetidin-3-ol], for which the figures for the IC50 at GPR3 (setting [4]) and at GPR6 (setting [5]) were 1000 to 30000 nM and 100 to 1000 nM, respectively.

In the case of `COc1ncccc1-c1nc2c(nc1N1CCC(Oc3ccc(F)cc3F)CC1)CCN(C(C)=O)C2` [Compound 112, 1-{2-[4-(2,4-difluorophenoxy)piperidin-1-yl]-3-(2-methoxypyridin-3-yl)-5H,6H,7H,8H-pyrido[3,4-b]pyrazin-6-yl}ethan-1-one], the IC50 against GPR3 (setting [4]) and against GPR6 (setting [5]) was 1000 to 30000 nM throughout.

For `CC(C)n1cc(-c2nc3cnc(C(O)C(C)(C)O)cc3nc2N2CCN(Cc3ccc(F)cc3F)CC2)cn1` (stereo not drawn) [Compound 298, 1-(2-{4-[(2,4-difluorophenyl)methyl]piperazin-1-yl}-3-[1-(propan-2-yl)-1H-pyrazol-4-yl]pyrido[3,4-b]pyrazin-7-yl)-2-methylpropane-1,2-diol], the IC50 was in the range of 1000 to 30000 nM on GPR3 (procedure of Example 24) and 100 to 1000 nM on GPR6 (procedure of Example 24).

As for `COCC(O)c1cc2nc(N3CCC(Oc4ccc(F)cc4F)CC3)c(-c3cnn(C)c3)nc2cn1` (stereo not drawn) [Compound 437, 1-(2-(4-(2,4-difluorophenoxy)piperidin-1-yl)-3-(1-methyl-1H-pyrazol-4-yl)pyrido[3,4-b]pyrazin-7-yl)-2-methoxyethan-1-ol], the IC50 lay within 1000 to 30000 nM against GPR3 (setting [4]) and 100 to 1000 nM at GPR6 (setting [5]).

`Cn1cc(-c2nc3cnc(C(O)CO)cc3nc2N2CCC(Oc3ccc(F)cc3F)CC2)cn1` (stereo not drawn) [Compound 470, 1-(2-(4-(2,4-difluorophenoxy)piperidin-1-yl)-3-(1-methyl-1H-pyrazol-4-yl)pyrido[3,4-b]pyrazin-7-yl)ethane-1,2-diol]: the half-inhibitory concentration (IC50) on GPR3 (setting [4]) and against GPR6 (setting [5]) was 1000 to 30000 nM each time.

In the case of `CC(=O)N1CCc2nc(N3CCC(Oc4ccc(F)cc4F)CC3)c(C3CCOCC3)nc2C1` [Compound 236, 1-{2-[4-(2,4-difluorophenoxy)piperidin-1-yl]-3-(oxan-4-yl)-5H,6H,7H,8H-pyrido[3,4-b]pyrazin-6-yl}ethan-1-one], the IC50 against GPR3 (setting [4]) and against GPR6 (setting [5]) was 1000 to 30000 nM throughout.

For `CC(C)(O)[C@](C)(O)c1cc2nc(N3CCC(Oc4ccc(F)cc4F)CC3)c(-c3cnn(CF)c3)nc2cn1` (single isomer, unassigned) [Compound 677], the IC50 against GPR3 (procedure of Example 24) lay in the range of 1000 to 30000 nM; on GPR6 (procedure of Example 24), 100 to 1000 nM.

In the case of `CC(C)(O)[C@@](C)(O)c1cc2nc(N3CCN(Cc4ccccc4F)CC3)c(-c3cnn(C4CC4)c3)nc2cn1` (single isomer, unassigned) [Compound 747], the results for the IC50 at GPR3 (procedure of Example 24) and on GPR6 (procedure of Example 24) were 1000 to 30000 nM and 100 to 1000 nM, respectively.

`Fc1ccc(-c2ncc3n2CCN(c2nc4ccncc4nc2-c2cn[nH]c2)C3)c(F)c1` [Compound 130, 4-{2-[3-(2,4-difluorophenyl)-5H,6H,7H,8H-imidazo[1,5-a]pyrazin-7-yl]pyrido[3,4-b]pyrazin-3-yl}-1H-pyrazole]: the IC50 against GPR3 (setting [4]) and on GPR6 (setting [5]) was at least 30000 nM throughout.

On to `O=C(C1CCCN1)N1CCc2nc(N3CCC(Oc4ccc(F)cc4F)CC3)c(-c3cn[nH]c3)nc2C1` (stereo not drawn) [Compound 178, 4-(2,4-difluorophenoxy)-1-[3-(1H-pyrazol-4-yl)-6-(pyrrolidine-2-carbonyl)-5H,6H,7H,8H-pyrido[3,4-b]pyrazin-2-yl]piperidine], for which the IC50 on GPR3 (setting [4]) fell in the range of 1000 to 30000 nM; on GPR6 (setting [5]), 100 to 1000 nM.
